For series [1], the system named is spermidine synthase. To be noted: cited from earlier work.
For series [2], the target named is T1, spermidine synthase (Homo sapiens, UniProt P19623).
T1 construct: host or cells: a variety of mammalian cells (endogenous enzyme)
T1 sequence (P19623 1-302): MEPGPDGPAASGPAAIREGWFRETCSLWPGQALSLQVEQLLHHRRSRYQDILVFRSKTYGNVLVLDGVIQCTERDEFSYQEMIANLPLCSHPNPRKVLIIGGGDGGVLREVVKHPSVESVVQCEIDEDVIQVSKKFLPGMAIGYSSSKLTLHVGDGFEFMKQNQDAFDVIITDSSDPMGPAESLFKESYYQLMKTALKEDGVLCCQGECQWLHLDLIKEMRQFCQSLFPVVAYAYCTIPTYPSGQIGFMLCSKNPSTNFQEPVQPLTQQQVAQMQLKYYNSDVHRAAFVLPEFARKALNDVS
To be noted: variety of mammalian cells exposed to racemic AdoDATO; cited from earlier work.

The subject of the next series is cell proliferation. To be noted: cell culture; cited from earlier work.
Series [3] relates to spermidine synthase. To be noted: neonatal rats, cited from earlier work.
The test system of series [4] is mouse alveolar macrophages. To be noted: cited from earlier work; for fusion of macrophages: 1α,25(OH)2D3-induced; for enhanced synthesis of proteins induced by 1α,25(OH)2D3: 9 of the 14 induced proteins.
Series [5] deals with proteoglycan subunits bound to type II collagen. To be noted: Sepharose 4B-collagen column loaded with proteoglycan subunits; cited from earlier work.
For the next series, the target named is T2, alkaline phosphatase (Homo sapiens, UniProt P05186).
T2 construct: alkaline phosphatase produced from cartilage
T2 sequence (P05186 18-501): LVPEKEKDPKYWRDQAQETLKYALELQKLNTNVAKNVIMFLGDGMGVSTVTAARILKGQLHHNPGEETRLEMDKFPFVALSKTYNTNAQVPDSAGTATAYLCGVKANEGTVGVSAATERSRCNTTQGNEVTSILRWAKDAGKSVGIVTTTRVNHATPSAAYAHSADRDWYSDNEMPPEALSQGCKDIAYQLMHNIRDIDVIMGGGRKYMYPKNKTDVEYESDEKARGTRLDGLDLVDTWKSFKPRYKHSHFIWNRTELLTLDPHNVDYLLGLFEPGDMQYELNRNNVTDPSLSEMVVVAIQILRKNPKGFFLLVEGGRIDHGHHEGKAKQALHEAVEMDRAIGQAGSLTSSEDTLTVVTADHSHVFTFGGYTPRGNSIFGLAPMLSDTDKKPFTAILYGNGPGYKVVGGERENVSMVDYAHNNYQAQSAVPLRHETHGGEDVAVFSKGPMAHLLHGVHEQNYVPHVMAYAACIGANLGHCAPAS
To be noted: cited from earlier work.

For another series, the system named is HMSC. Description: Differentiation marker expression in HMSC treated with cytokines/growth factors. Format: cell-based, human. Here is the method: 1.1. HMSC—Normal adult articular cartilage progenitor cells were obtained from human cartilage. The cartilage was dissected and cultured in fresh DMEM medium supplemented with 10% FCS, L-glutamine and antibiotics. Two weeks after the cultivation of dissected cartilage, the remaining pieces were removed and the attached cells were used.
(§1) A series of in vitro experiments using HMSC was conducted. The cells were exposed to a panel of treatments which cause either chondrogenic (e.g., IGF-1) or osteogenic and angiogenic (e.g., IL1 and FGF-2) responses. Two rounds of in vitro experiments were performed. Initially, a calibration experiment was carried out in order to determine the time/dose kinetics of the cellular response to the stimuli. Based on this study, a large-scale experiment was performed from which RNA was prepared and used in the course of the gene expression profiling experiments.
In order to validate the differentiation response of the HMSC to the various stimuli, cells exposed to different treatments (Table 1) were tested for the expression of markers specific for osteoblastic and chondroblastic lineages by immunohistochemistry and staining procedures. To optimize the response of HMSC to differentiation treatment, it was studied on cells grown at varying density (sparse and confluent).

For series [6], the system named is spermidine synthase. The series is described as follows: Gene expression profiling of treated HMSC by cDNA microarray hybridization. Format: cell-based, human. The note with it: HMSC treated with FGF-2. Here is the method: as §1
cDNA probes were synthesized from 1 μg of polyA RNA derived from every sample using reverse transcriptase (Superscript, Gibco-BRL) and 18-mer oligo-dT primer. Cy3-dCTP (Amersham) or Cy5-dCTP (Amersham) were incorporated during the RT reaction, to label the cDNA. Hybridization, subsequent scanning, and visualization were performed as previously described (Schena, M. et al. (1996) Proc Natl Acad Sci USA 93, 10614-10619). The quality control of hybridizations was performed according to applicant's methods.
Probe 2 in all hybridizations was an identical probe comprised of a pool of 0 time point RNA extractions (Table 4, Common control). This served as a common normalizing probe and allowed us to compare results from different hybridizations in formal statistical analysis. […]

Setting [7] is: oral administration for 10 days or 4 months.
Where [8] appears, read: rats, prolonged exposure for 10 days.

Turning to `C[C@H]1CC[C@H](N)CC1` [4MCHA, trans-4-methylcyclohexylamine], in the series on spermidine synthase [1] (setting [7]), the “spermidine in rat tissue” value was “specific and marked decrease”; the “spermine in rat tissue” value is “compensatory increase”. Further, the reduction in spermidine in the series on spermidine synthase [1] (rats, prolonged exposure for 10 days, variety of tissues) is 70-80%. Moreover, in the series on spermidine synthase [1] (setting [8]), the effect on growth result is reported as “no obvious effect”, the spermine result was “compensatory increase” and the total polyamine content entry is on record as “remained constant”.

As for `NCCCCC[S+](CCN)CC1OC(n2cnc3c(N)ncnc32)C(O)C1O` (centres unmarked) [AdoDATO, S-adenosyl-1,8-diamino-3-thiooctane], at spermidine synthase [2], the cellular spermidine content result is given as “drastic decrease” and the putrescine content result is “concomitant elevation”. Further, the cell proliferation entry in the series on cell proliferation is listed as “significant decrease”.

On to `C1CCC(NC2CCCCC2)CC1` [DCHA], for which, in the series on spermidine synthase [3] (continued DCHA treatment), the “levels of all three polyamines on continued treatment” value is “returned to normal within two weeks”. Moreover, in the series on spermidine synthase [3] (daily administration), the brain spermidine result is given as “dose-dependent depletion”; the putrescine and spermine result is on record as “rise”.

Take `CC(C=NNC(=N)N)=NNC(=N)N` [MGBG, methylglyoxal bis(guanylhydrazone), reference compound]: in [4], the fusion of macrophages entry was “concomitant inhibition” and the “enhanced synthesis of proteins induced by 1α,25(OH)2D3” value is given as “greatly diminished”.

As to `NCCCCN` [putrescine, 1,4-diaminobutane], the “effect on displacing proteoglycan subunits from collagen column” value (shortened to “effect … from collagen column”) in series [5] is “without effect”.

In the case of `NCCCCNCCCN` [spermidine], in [4], the fusion of macrophages entry is “restored” and the “enhanced synthesis of proteins induced by 1α,25(OH)2D3” value is reported as “restored”. In addition, on alkaline phosphatase, the “activity of alkaline phosphatase produced from cartilage” value is “increased”. Further, in [5], the “effect … from collagen column” value is “strong capacity” and the “proteoglycan subunits removed from the column” value is on record as “about 90%”.

Consider `NCCCNCCCCNCCCN` [spermine], for which the “activity of alkaline phosphatase produced from cartilage” value on alkaline phosphatase is on record as “increased”. Besides, in series [5], the “effect … from collagen column” value was “without effect”.

Take FGF-2: fibroblast growth factor: in the series on HMSC (confluent HMSC, 6 days), the FGFR3 expression result is reported as “increased”; the VEGF expression entry was “increased”; the “chondrocyte maturation and cartilage matrix production (Alcian Blue staining)” value is on record as “decreased”; the expression of osteocalcin entry is “increased”. In addition, the “expression of spermidine synthase gene” value in the series on spermidine synthase [6] is “up-regulation”.

On to “IGF-1: growth factor that is beneficial for normal cartilage function and rehabilitation”, for which, in the series with HMSC (confluent HMSC, 6 days), the FGFR3 expression entry is “decreased”; the “chondrocyte maturation and cartilage matrix production (Alcian Blue staining)” value was “accelerates”; the “expression of collagen type II” value is given as “increased”.

For “IL-1β: the inflammatory cytokine, known to be overproduced in OA joints”, in the series on HMSC (confluent HMSC, 6 days), the FGFR3 expression result is recorded as “increased”; the VEGF expression entry is listed as “increased”; the “chondrocyte maturation and cartilage matrix production (Alcian Blue staining)” value is listed as “decreased”; the expression of osteocalcin entry is “increased”. The “cytotoxicity to HMSC” value in the series on HMSC (high doses) is “cytotoxic”.

Source of the values: patent US6696454B2, “Inhibitors of spermidine synthase for the treatment of osteoarthritis and cartilage rehabilitation” (Quark Biotech, Inc., priority 2000, dated 2004).
